Tests used:
IL-15Rα = assay: IL-15Ralpha expression by flow cytometry; format: cell-based, human; conditions: OKT3 stimulated lymphocytes, FIG. 15
Text: In vitro, supraphysiologic levels of cytokine can engage intermediate and low affinity IL-15 receptors on lymphocytes lacking IL-15Rα. […] IL-15Rα was detected with a polyclonal, biotinylated antibody and biotinylated isotype-matched control antibody; cell surface-bound antibody was then labeled with streptavidin-PE (R&D Systems). PE was detected through flow cytometry.

CTLL-2 cells = assay: CTLL-2 proliferation assay (3H-thymidine); format: cell-based, mouse; conditions: Sup-T1 supernatants or control cytokine, 24 h
Description: The CTLL-2 assay was used to determine whether IL-15 produced by transduced Sup-T1 cells was biologically active.
CTLL-2 cells were grown in culture for 4 days and then harvested and washed twice in PBS and then plated into a 96-well plate, 5×10^3 cells/well. The CTLL-2 cells were incubated in the absence of cytokines for 4 hours. Supernatants from the transduced Sup-T1 cells were then added to the culture in serial dilutions. […] The CTLL-2 cells were cultured for a total of 24 hours; during the final six hours ^3H-Thymidine was added to each well. The CTLL-2 cells were harvested to a filter and read on a β-counter.

IL-15: exogenous recombinant human IL-15 added to culture media
IL-15Rα staining (IL-15Rα): did not manifest IL-15Rα staining | proliferation of CTLL-2 (CTLL-2 cells): did proliferate
